Test results published in publication PMC11653257, “Organometallic Half-Sandwich Complexes of 8-Hydroxyquinoline-Derived Mannich Bases with Enhanced Solubility: Targeting Multidrug Resistant Cancer” (Inorganic Chemistry, 2024).
In brackets after ≈: the same amount, converted by molar mass. Read-outs that look alike come from different tables or passages of the source.

Columns and labels:
[1] = pKa of in situ prepared complexes by pH-potentiometry; type: physicochemical; details: I = 0.20 M KNO3
Source text: The results, shown in Table 2, indicate good agreement between the data obtained by the different methods. It should be noted that these processes show overlap in all cases, and therefore, the assignment of the pKa values to the given moieties cannot be made reliably. However, by comparing the spectral changes with those observed for HQ and other simple derivatives,[25] it can be concluded that the lower pKa likely belongs to the deprotonation of the aqua coligand.
The pH-potentiometric measurements were carried out at 25.0 ± 0.1 °C in water in the pH range between 2.0 and 11.5 and at a constant ionic strength of 0.20 M KNO3. The titrations were performed in a carbonate-free KOH solution (0.20 M). The exact concentrations of the HNO3 and KOH solutions were determined by pH-potentiometric titrations. An Orion 710A pH-meter equipped with a Metrohm combined electrode (type 6.0234.100) and a Metrohm 665 Dosimat buret were used for this purpose. […] The average water ionization constant, pKw, was determined as 13.76 ± 0.01, which is in good agreement with the literature data.[67] The initial volume of the samples was 10.0 mL. […] Samples were degassed by bubbling purified argon through them for about 10 min prior to the measurements, and the inert gas was also passed over the solutions during the titrations. The computer program Hyperquad2013[64] was utilized to establish the stoichiometry of the species and to calculate the equilibrium constants.

MES-SA/Dx5 [2] = assay: Cytotoxicity in triple coculture, MES-SA/Dx5 eGFP; type: cell-based, human
Method: Cell lines were purchased from the American Type Culture Collection (ATCC). MES-SA/B1 is a human MDR1-transfected derivative of MES-SA, and MES-SA mCherry, MES-SA/B1 mOrange, and MES-SA/Dx5 eGFP were engineered to stably express the respective fluorescent proteins previously.[62] Cells were kept in culture medium (DMEM) supplemented with 10% fetal bovine serum, 2 mM L-glutamine, 100 units/mL penicillin, and 100 μg/mL streptomycin (Thermo Fisher). One week before use, MES-SA/Dx5 eGFP cells were treated with 0.5 μM doxorubicin to ensure ABCB1/P-gp expression.
The tested compounds were dissolved in 50% (v/v) DMSO/PBS’ buffer to prepare 5–10 mM stock solutions, which were diluted in complete culture medium. Constitutive expression of the fluorescent proteins allowed multiplexing in cytotoxicity experiments.[62] Cells were mixed before seeding in 384-well plates: in double cocultures, MES-SA mCherry and MES-SA/Dx5 eGFP cells were seeded at 1250–1250 cells/well (in total 2500 cells/well); while in triple cocultures, MES-SA mCherry, MES-SA/Dx5 eGFP and MES-SA/B1 mOrange cells were seeded at 800–800–800 cells/well (in total 2400 cells/well). Serial dilutions of the compounds were added 24 h after seeding. To address the effect of P-gp function, TQ was added at a nontoxic concentration (0.4 μM) 15 min before the test compounds. The intensity of the fluorescent proteins, which is proportional to cell mass, was measured after 144 h of incubation at the respective fluorescent channels (excitation/emission: eGFP: 485 nm/510 nm; mOrange: 545 nm/567 nm; mCherry: 585 nm/610 nm). pIC50 values were calculated by a custom program written by Judit Sessler in C#.[62] IC50 values and standard deviation were calculated from average pIC50 values from at least 3 independent measurements.

MES-SA = details: monoculture, PrestoBlue; ref SI3; cited from earlier work
Colo320 = assay: Cytotoxicity, Colo320; type: cell-based, human; details: this work
Source text: Supplementary Information
(11 pictures or pasted objects on this page, not shown here)

[3] = pKa of the ligands by 1H NMR titration; type: physicochemical; details: 0.20 M KNO3 with 10% (v/v) D2O, I = 0.20 M KNO3, 25.0 °C, read-out: pKa (OH)
Method: (§1) Physico-chemical properties such as aqueous solubility, lipophilicity, and the actual protonation state at a given pH are known to influence the pharmacokinetic behavior of a drug.
Bruker Avance III HD Ascend 500 Plus instrument (Billerica, MA, USA) was used for NMR studies. ^1H NMR spectroscopic measurements were carried out with a WATERGATE water suppression pulse scheme in the presence of 10% (v/v) D2O in most cases. DSS internal standard was added to samples to obtain reference peaks. ^1H NMR titrations were carried out in the presence of 0.20 M KNO3. The computer program HypSpec[64] was used to obtain equilibrium constants.

[4] = pKa of the ligands by UV–vis titration; type: physicochemical; details: for pKa: 0.20 M KNO3, UV–vis, I = 0.20 M KNO3, 10 equiv. EDTA
Method: as §1
An Agilent Cary 8454 diode array spectrophotometer was utilized to obtain UV–vis spectra in the wavelength range 190–1100 nm. The path length (l) was 1 or 2 cm in most cases (the actual l is always indicated in the legends of the figures). The concentrations of the ligands and complexes were between 36 and 100 μM. The ligands were titrated in the presence of 10 equiv of EDTA. Individual samples contained 0–37 μM HSA, 0–206 μM MIM, 0–759 μM AHA, or 0–733 μM FHA. Spectra were always background and baseline corrected. The computer program HypSpec[64] was used to obtain stability constants.

MES-SA/Dx5 [5] = details: monoculture, ref SI3, cited from earlier work
[6] = Thermodynamic aqueous solubility at pH 7.4; type: physicochemical; details: 10 mM HEPES buffer, thermodynamic from solid, pH 7.4 (10 mM HEPES), 25.0 °C, read-out: thermodynamic aqueous solubility S7.4
Method: The concentration of the compounds was determined by UV–vis spectrophotometry. For calibration, stock solutions of the compounds were used with known concentrations dissolved in 100% DMSO, 75% DMSO, and 50% (v/v) DMSO/buffered aqueous solutions.

A431-B1 = system: A431-B1; set-up: method as in earlier work; details: monoculture, ref SI3, cited from earlier work

Row | Compound | pKa (H2O) [1] | pKa (Npyr/pipH+) [1] | SR Dx5 = IC50 (MES-SA)/IC50 (MES-SA/Dx5) (MES-SA/Dx5 [2]) | IC50 (MES-SA/Dx5 [2]; 144 h) | IC50 (MES-SA) | SR (Colo205 / Colo320) (Colo320) | pKa [3] | pKa ([4]; read-out: pKa (Npyr/pipH+)) | pKa ([4]; read-out: pKa (NqH+)) | pKa ([4]; read-out: pKa (OH)) | fraction of HL ([4]; pH 7.4, based on the pKa values) | IC50 (MES-SA/Dx5 [5]; PrestoBlue) | SR (MES-SA / MES-SA/Dx5) (MES-SA/Dx5 [5]; + 1 µM TQ) | SR (MES-SA / MES-SA/Dx5) (MES-SA/Dx5 [5]) | solubility thermodynamic [6] | IC50 (A431-B1; 72 h, PrestoBlue) | SR (A431 / A431-B1) (A431-B1)
1 | [RhCp*(HQCl-Pip)Cl]Cl [(3)] | 9.39 ± 0.07 | 10.41 ± 0.10 | 11.1 | 190 nM |  |  |  |  |  |  |  |  |  |  |  |  | 
2 | Oc1c(CN2CCCCC2)cc(Cl)c2cccnc12 [HQCl-pip, 5-chloro-7-(piperidin-1-ylmethyl)quinolin-8-ol] |  |  |  |  | 2490 ± 390 nM | 2.4 | 7.43 ± 0.02 | 11.3 ± 0.12 | 2.09 ± 0.05 | 7.42 ± 0.03 | 42% | 290 ± 50 nM | 1.31 | 8.71 | 254 ± 3 µM (≈ 70.3 µg/mL) | 1690 ± 270 nM | 3.96
